Source: US20220096398A1, “COMPLEXES AND COMPOSITIONS COMPRISING PROBUCOL AND USES THEREOF” (MACQUARIE UNIVERSITY, priority 2019, published 2022)

Assay: Pharmacokinetic parameters after oral gavage in Sprague Dawley rats
Format: in vivo, male Sprague Dawley rats
Details: rat, 10 mg/kg
Protocol: The in vivo pharmacokinetic parameters of mesoporous silica (AMS-6) loaded with probucol (34.8 wt %) prepared according to the procedure as described in Example 1, were obtained after oral gavage to male Sprague Dawley rats at a dose of 10 mg/kg. Crystalline probucol (PB) was administered in comparison. […] Further, the maximum concentration of probucol after administration of silica loaded with probucol is approximately 10 times higher than when crystalline probucol is administered.

Question: What does the source list for CC(C)(Sc1cc(C(C)(C)C)c(O)c(C(C)(C)C)c1)Sc1cc(C(C)(C)C)c(O)c(C(C)(C)C)c1 [PB, Probucol]?
Answer: AUC(0-inf) (male, Sprague Dawley, plasma): 859 ng·h/mL; Cmax (male, Sprague Dawley, plasma): 30.9 ng/mL; Tmax (male, Sprague Dawley, plasma): 8 h; half-life (male, Sprague Dawley, plasma): 19.6 h; AUC(0-t) (male, Sprague Dawley, plasma, read-out: AUC0-24): 492 ng·h/mL; Tlast: 24 h
